Activity calls are given as the source filed them. How the calls were made is not given here. Residues, ends and D or L forms follow the SMILES beside them.

From ChEMBL document CHEMBL1154915, “Selection of inhibitory peptides for Aurora-A kinase from a phage-displayed library of helix-loop-helix peptides” (Bioorg Med Chem Lett, 2010) come the findings set out here.

The target of this assay is T1, Aurora kinase A (Homo sapiens) (UniProt O14965).
T1 sequence (whole entry): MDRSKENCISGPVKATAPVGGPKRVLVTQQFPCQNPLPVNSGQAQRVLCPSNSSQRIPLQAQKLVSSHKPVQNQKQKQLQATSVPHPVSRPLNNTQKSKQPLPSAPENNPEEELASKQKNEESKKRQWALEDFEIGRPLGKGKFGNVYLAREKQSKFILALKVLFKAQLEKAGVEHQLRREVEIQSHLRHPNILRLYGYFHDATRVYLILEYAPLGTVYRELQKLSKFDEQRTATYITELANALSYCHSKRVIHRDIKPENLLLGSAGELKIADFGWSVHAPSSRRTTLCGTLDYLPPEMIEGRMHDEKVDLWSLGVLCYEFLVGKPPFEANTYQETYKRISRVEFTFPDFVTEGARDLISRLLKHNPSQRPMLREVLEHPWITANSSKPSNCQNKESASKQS
In words: Binding affinity to GST-tagged Aurora A after 1 hr by ELISA.

Take `CSCC[C@H](NC(=O)[C@@H]1CCCN1C(=O)[C@H](CCC(N)=O)NC(=O)[C@@H]1CCCN1C(=O)CNC(=O)[C@H](CCC(=O)O)NC(=O)[C@H](CC(C)C)NC(=O)[C@H](C)NC(=O)[C@H](C)NC(=O)[C@H](CC(C)C)NC(=O)[C@H](CCC(=O)O)NC(=O)[C@H](C)NC(=O)[C@H](CCC(=O)O)NC(=O)[C@H](CC(C)C)NC(=O)[C@H](C)NC(=O)[C@H](C)NC(=O)[C@H](CC(C)C)NC(=O)[C@H](CCC(=O)O)NC(=O)[C@@H](C)N)C(=O)N[C@@H](Cc1c[nH]c2ccccc12)C(=O)NCC(=O)N[C@@H](CO)C(=O)N[C@@H](Cc1c[nH]c2ccccc12)C(=O)N[C@@H](CCCNC(=N)N)C(=O)NCC(=O)N[C@@H](CCCCN)C(=O)N[C@@H](CC(C)C)C(=O)N[C@@H](C)C(=O)N[C@@H](C)C(=O)N[C@@H](CC(C)C)C(=O)N[C@@H](CCCCN)C(=O)N[C@@H](C)C(=O)N[C@@H](CCCCN)C(=O)N[C@@H](CC(C)C)C(=O)N[C@@H](C)C(=O)N[C@@H](C)C(=O)N[C@@H](CC(C)C)C(=O)N[C@@H](CCCCN)C(=O)N[C@@H](C)C(=O)O`: the outcome was Active.
In the case of `CC(C)C[C@H](NC(=O)[C@H](C)NC(=O)[C@H](C)NC(=O)[C@H](CC(C)C)NC(=O)[C@H](CCC(=O)O)NC(=O)[C@H](C)NC(=O)[C@H](CCC(=O)O)NC(=O)[C@H](CC(C)C)NC(=O)[C@H](C)NC(=O)[C@H](C)NC(=O)[C@H](CC(C)C)NC(=O)[C@H](CCC(=O)O)NC(=O)[C@H](C)N)C(=O)N[C@@H](CCC(=O)O)C(=O)NCC(=O)N[C@@H](CS)C(=O)N[C@H](C(=O)N[C@@H](CO)C(=O)N[C@H](C(=O)N[C@@H](Cc1ccc(O)cc1)C(=O)N[C@@H](CS)C(=O)N[C@H](C(=O)N[C@H](C(=O)N[C@@H](CO)C(=O)NCC(=O)N[C@@H](CCCCN)C(=O)N[C@@H](CC(C)C)C(=O)N[C@@H](C)C(=O)N[C@@H](C)C(=O)N[C@@H](CC(C)C)C(=O)N[C@@H](CCCCN)C(=O)N[C@@H](C)C(=O)N[C@@H](CCCCN)C(=O)N[C@@H](CC(C)C)C(=O)N[C@@H](C)C(=O)N[C@@H](C)C(=O)N[C@@H](CC(C)C)C(=O)N[C@@H](CCCCN)C(=O)N[C@@H](C)C(=O)O)C(C)C)[C@@H](C)O)C(C)C)[C@@H](C)O` (H-AELAALEAELAALEGCTSVYCTVSGKLAALKAKLAALKA-OH), the result was Active.
The entry for “H-AELAALEAELAALEGAPCLVMTTAGKLAALKAKLAALKA-OH” is “Active”; for “H-AELAALEAELAALEGARSLVAQMTGKLAALKAKLAALKA-OH” it is “Active”; for “H-AELAALEAELAALEGDVAVAVRWDGKLAALKAKLAALKA-OH” it is “Active”.
Next, “H-AELAALEAELAALEGFPGRFGLFVGKLAALKAKLAALKA-OH”: “Active”; “H-AELAALEAELAALEGGKVAAWGFWGKLAALKAKLAALKA-OH”: “Active”; “H-AELAALEAELAALEGGLSEVHGLSGKLAALKAKLAALKA-OH”: “Active”.
The entry for “H-AELAALEAELAALEGGSPRWYELLGKLAALKAKLAALKA-OH” is “Active”.
As to “H-AELAALEAELAALEGGTKMWSLLVDGKLAALKAKLAALKA-OH”, the result was Active.
The entry for “H-AELAALEAELAALEGGYERRGWGVTGKLAALKAKLAALKA-OH” is “Active”; for “H-AELAALEAELAALEGKGTQMWWLLGKLAALKAKLAALKA-OH” it is “Active”; for “H-AELAALEAELAALEGKVYMFWTIMGKLAALKAKLAALKA-OH” it is “Active”.
On to “H-AELAALEAELAALEGLEGKSMGFIGKLAALKAKLAALKA-OH”, for which the outcome was Active.
With “H-AELAALEAELAALEGLQQVLSYIFGKLAALKAKLAALKA-OH”, the outcome was Active.
For “H-AELAALEAELAALEGLQTMWHSLWGKLAALKAKLAALKA-OH”, the result was Active.
Next, “H-AELAALEAELAALEGLVMGVKAFLGKLAALKAKLAALKA-OH”: “Active”.
Next, “H-AELAALEAELAALEGMRDWLIIGFGKLAALKAKLAALKA-OH”: “Active”; “H-AELAALEAELAALEGNISRFWVLAGKLAALKAKLAALKA-OH”: “Active”.
